Read-outs that look alike come from different tables or passages of the source.
Target: T1, H^+ /K^+ ATPase (Oryctolagus cuniculus, UniProt P27112)
T1 construct: Rabbit gastric glands are isolated from gastric mucosa; from tissue; host or cells: rabbit isolated gastric glands (gastric mucosa, corpus region of the stomach)
Experiment: Inhibition of 14C-aminopyrine uptake in rabbit isolated gastric glands stimulated by DBcAMP or high K+ (anti-secretory activity)
Format: cell-based
Conditions: for antisecretory activity: result in words in the introduction, test not named; for inhibition at 100 µM: 10^-4 M, % inhibition of maximum response to secretagogue
Experimental: Compounds of formula I may be tested for anti-secretory activity by their ability to inhibit the highly specific proton transporting enzyme H^+ /K^+ ATPase.
Potential H^+ /K^+ ATPase inhibitors are evaluated by a technique involving the measurement of aminopyrine accumulation in rabbit isolated gastric glands. Aminopyrine accumulates in acid-secreting cells; therefore, uptake of aminopyrine is increased by secretagogues and an inhibitor of acid secretion will reduce the response to one or more secretagogues depending upon its site of action.
The following test procedure is used:
Rabbit gastric glands are isolated from gastric mucosa from the corpus region of the stomach by a method based on one described by Berglindh T., Obrink K. J., Acta Physiol. Scand.
Compounds are tested at a concentration of 10^-4 M, for their ability to inhibit ^14 C-aminopyrine uptake in gastric glands, stimulated by DBcAMP and high K^+ respectively. Results are expressed as the % inhibition of the maximum response to the secretagogue induced by the test compound.

[1] = 14C-aminopyrine uptake in rabbit gastric glands stimulated by high K^+, read-out: % Inhibition to stimulation by: K^+
[2] = 14C-aminopyrine uptake in rabbit gastric glands stimulated by DBcAMP, read-out: % Inhibition to stimulation by: DBcAMP

T1 sequence (P27112 whole entry): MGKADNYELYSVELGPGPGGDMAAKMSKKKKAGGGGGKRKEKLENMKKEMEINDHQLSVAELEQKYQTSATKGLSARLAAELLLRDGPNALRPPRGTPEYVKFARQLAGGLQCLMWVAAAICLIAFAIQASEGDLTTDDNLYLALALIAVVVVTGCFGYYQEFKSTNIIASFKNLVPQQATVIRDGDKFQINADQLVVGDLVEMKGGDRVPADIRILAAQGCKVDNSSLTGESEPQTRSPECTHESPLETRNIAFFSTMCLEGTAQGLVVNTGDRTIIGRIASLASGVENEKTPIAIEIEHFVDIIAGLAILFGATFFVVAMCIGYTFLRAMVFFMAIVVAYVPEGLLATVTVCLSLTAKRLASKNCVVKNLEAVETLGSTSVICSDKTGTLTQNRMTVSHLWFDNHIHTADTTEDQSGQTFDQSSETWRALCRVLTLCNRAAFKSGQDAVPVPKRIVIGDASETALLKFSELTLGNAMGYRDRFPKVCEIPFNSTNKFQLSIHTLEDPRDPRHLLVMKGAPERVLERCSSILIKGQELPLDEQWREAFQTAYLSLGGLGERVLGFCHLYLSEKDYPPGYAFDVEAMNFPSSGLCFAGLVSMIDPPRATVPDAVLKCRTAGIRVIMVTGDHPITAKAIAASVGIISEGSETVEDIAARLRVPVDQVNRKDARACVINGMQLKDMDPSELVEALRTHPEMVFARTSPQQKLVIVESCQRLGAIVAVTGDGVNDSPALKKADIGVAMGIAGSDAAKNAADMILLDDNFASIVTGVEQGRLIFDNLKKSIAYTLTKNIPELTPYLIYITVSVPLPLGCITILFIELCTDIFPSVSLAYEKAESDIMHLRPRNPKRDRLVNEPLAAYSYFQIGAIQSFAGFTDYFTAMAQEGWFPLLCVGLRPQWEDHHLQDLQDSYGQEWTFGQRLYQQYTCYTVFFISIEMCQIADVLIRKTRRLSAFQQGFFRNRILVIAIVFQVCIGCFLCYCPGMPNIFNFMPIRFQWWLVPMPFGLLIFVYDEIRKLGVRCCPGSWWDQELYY
T1 sequence (P18597 whole entry partner): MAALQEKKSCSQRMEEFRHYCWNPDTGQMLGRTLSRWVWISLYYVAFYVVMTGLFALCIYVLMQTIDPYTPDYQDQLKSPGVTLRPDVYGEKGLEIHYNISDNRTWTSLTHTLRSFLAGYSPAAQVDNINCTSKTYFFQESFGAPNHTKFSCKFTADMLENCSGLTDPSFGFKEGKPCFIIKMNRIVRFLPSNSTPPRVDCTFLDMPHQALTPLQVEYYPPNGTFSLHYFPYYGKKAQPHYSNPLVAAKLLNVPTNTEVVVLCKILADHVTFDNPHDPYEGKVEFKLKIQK

| Compound | inhibition at 100 µM [1] | inhibition at 100 µM [2] | antisecretory activity |
| --- | --- | --- | --- |
| Nc1ccc(NC(=O)c2cc[n+]([O-])cc2)cc1 [4-amino, reference compound] | – | – | inactive |
| O=C(Nc1ccccc1Cl)c1cc[n+]([O-])cc1 [2-chlorophenyl, reference compound] | – | – | not active |
| Nc1cccc(NC(=O)c2cc[n+]([O-])cc2)c1 [Example 3-amino, reference compound] | – | – | inactive |
| O=C(Nc1ccc(Cl)cc1)c1cc[n+]([O-])cc1 [N-(4-chlorophenyl)-4-pyridinecarboxamide-1-oxide] | 32% | 22% | exhibited antisecretory activity |
| O=C(Nc1ccc(Cl)cc1NC(=O)c1cc[n+]([O-])cc1)c1cc[n+]([O-])cc1 [4-Chloro-N,N'-1,2-phenylenebis(4-pyridinecarboxamide-1-oxide)] | 27% | 20.5% | – |
| O=C(Nc1ccccc1)c1cc[n+]([O-])cc1 [phenyl, reference compound] | – | – | not active |

The next lines start with results.

| inhibition at 100 µM [1] | inhibition at 100 µM [2] | Compound | antisecretory activity |
| --- | --- | --- | --- |
| 54% | – | Nc1ccccc1NC(=O)c1ccncc1 [N--(2-aminophenyl)pyridine-4-carboxamide, N-(2-aminophenyl)-4-pyridinecarboxamide] | – |
| 168% | – | O=C(Nc1ccc(Cl)c(C(F)(F)F)c1)c1cc[n+]([O-])cc1 [N-[4-chloro-3-(trifluoromethyl)phenyl]-4-pyridinecarboxamide-1-oxide] | – |
| 36% | – | Nc1cc(Cl)c(Cl)cc1NC(=O)c1cc[n+]([O-])cc1 [N-(2-amino-4,5-dichlorophenyl)-4-pyridinecarboxamide-1-oxide] | – |
| 130% | 106% | Nc1ccccc1NC(=O)c1cc[n+]([O-])cc1 [N-(2-aminophenyl)pyridine-4-carboxamide-1-oxide] | exhibited antisecretory activity |
| 84% | 33% | O=C(Nc1ccc([N+](=O)[O-])cc1)c1cc[n+]([O-])cc1 [N-(4-nitrophenyl)pyridine-4-carboxamide-1-oxide] | – |

Source: patent US4728658A, “Pyridine derivatives” (John Wyeth & Brother Limited, priority 1984, dated 1988)
